Assay results as given in a flash point compilation (Sun et al. 2020).
Structures can show the parent of a compound that is named as a salt.

First: CCCCCCC(C)O (centres undefined) [2-Octanol]
Second: CCCCC(C)=O [Methyl butyl ketone]
The flash point of the first is higher: 88.00 °C for the first, 35.00 °C for the second.

Going from CS(C)=O [Dimethyl sulphoxide] to COC=O [Methyl formate], the flash point falls from 95.00 °C to -19.00 °C.

Going from C1CCNCC1 [Piperidine] to NC1CCCCC1 [Cyclohexylamine], the flash point rises from 16.00 °C to 32.00 °C.

Compared with c1ccc2cc3ccccc3cc2c1 [Anthracene], c1ccc(Nc2ccccc2)cc1 [Diphenylamine] is higher in flash point: 121.00 °C for the first, 153.00 °C for the second.

Going from CCCCCCC(C)OC(=O)c1ccccc1C(=O)OC(C)CCCCCC (centres undefined) [Di-sec-Octyl phthalate] to CCCCCCCCOC(=O)c1ccccc1C(=O)OCCCCCCCC [Di-n-Octyl phthalate], the flash point rises from 218.00 °C to 219.00 °C.

Compared with C=C(C)C1CC=C(C)CC1 (centres undefined) [p-Mentha-1,8-diene], C=COC(C)=O [Vinyl acetate] is lower in flash point: 45.00 °C for the first, -8.00 °C for the second.

Going from OCCOCCOCCO [Triethylene glycol] to CCCCOC(C)=O [n-Butyl acetate], the flash point falls from 177.00 °C to 27.00 °C.

Going from c1ccccc1 [Benzene] to CCNc1ccccc1 [n-Ethyl aniline], the flash point rises from -11.00 °C to 85.00 °C.

Going from CC(C)(C)OOC(=O)c1ccccc1 [tert-Butyl perbenzoate] to CC(=O)Oc1ccccc1 [Phenyl acetate], the flash point falls from 88.00 °C to 80.00 °C.

Compared with CCCCN(CCCC)CCCC [Tri-n-butyl amine], CCCCCCCCCc1ccccc1O [Nonyl phenol] is higher in flash point: 86.00 °C for the first, 141.00 °C for the second.

Going from ClCCCCl [1,3-Dichloropropane] to ClCCCCCl [1,4-Dichlorobutane], the flash point rises from 35.00 °C to 52.00 °C.

Going from CCCCCCCC/C=C\CCCCCCCC(=O)O [Oleic acid] to CCN1CCOCC1 [N-Ethylmorpholine], the flash point falls from 189.00 °C to 32.00 °C.

First: Clc1c(Cl)c(Cl)c(Cl)c(Cl)c1Cl [Hexachlorobenzene]
Second: C=CC [Propylene]
The flash point of the first is higher: 242.00 °C for the first, -108.00 °C for the second.

Going from N#CCCC#N [Succinonitrile] to C1CCC(C2CCCCC2)CC1 [Bicyclohexyl], the flash point falls from 132.00 °C to 74.00 °C.

Remark: another data set of the same source

Going from CCCCCCCC(C)C [Nonane, 2-methyl-] to CCCCCCC(C)C [Octane, 2-methyl-], the flash point falls from 41 °C to 26.0 °C.

First: CCCCCCCCCCCCCCO [1-Tetradecanol]
Second: C=CCCCCCCCCCCCCCC [1-HEXADECENE]
The flash point of the first is higher: 148.0 °C for the first, 132.0 °C for the second.

First: CCCCCCCC(C)=O [2-NONANONE]
Second: CCCCCCC(C)=O [2-OCTANONE]
The flash point of the first is higher: 64.0 °C for the first, 51.0 °C for the second.

Compared with CCCCCCCCCCC=O [Undecanal], CCCCCCCCCCO [Decyl alcohol] is higher in flash point: 96.0 °C for the first, 104.0 °C for the second.

Going from CCCCCCc1ccccc1 [1-Phenylhexane] to CCCCCCCc1ccccc1 [Benzene, heptyl-], the flash point rises from 83.0 °C to 97.5 °C.

Compared with CCCCC(C)=O [2-Hexanone], CCCCCCC(C)=O [2-Octanone] is higher in flash point: 23.0 °C for the first, 56.0 °C for the second.

Going from CCCCCC(C)CC (centres undefined) [Octane, 3-methyl-] to CCCCC(C)CC (centres undefined) [Heptane, 3-methyl-], the flash point falls from 25.5 °C to 6.0 °C.

Compared with CC(C)CCC(C)C [Hexane, 2,5-dimethyl-], CC(C)CCCCC(C)C [Octane, 2,7-dimethyl-] is higher in flash point: 2.0 °C for the first, 37.8 °C for the second.

Going from CCC(C)CC(C)(C)CC (centres undefined) [3,3,5-TRIMETHYLHEPTANE] to CCC(C)CC(C)C (centres undefined) [Hexane, 2,4-dimethyl-], the flash point falls from 28 °C to 3.0 °C.

First: CCCCCCC(C)O (centres undefined) [2-Octanol]
Second: CCCCCC(C)O (centres undefined) [2-Heptanol]
The flash point of the first is higher: 71.0 °C for the first, 59.0 °C for the second.

Going from COCC(C)OC (centres undefined) [1,2-DIMETHOXYPROPANE] to CCC(C)C(C)CC (centres undefined) [Hexane, 3,4-dimethyl-], the flash point rises from 0.6 °C to 7.5 °C.

Going from CCC(CC)CO [2-ETHYL-1-BUTANOL] to CCC(C)CCO (centres undefined) [1-Pentanol, 3-methyl-], the flash point rises from 57 °C to 58.0 °C.

Going from CCC(CC)(CC)CC [Pentane, 3,3-diethyl-] to CCC(C)CC(C)(C)CC (centres undefined) [3,3,5-Trimethylheptane], the flash point rises from 21 °C to 31 °C.

Compared with C=CCCCCCCC [1-Nonene], C=CCCCCCC [1-OCTENE] is lower in flash point: 26.0 °C for the first, 8 °C for the second.

First: CCC#N [Propanenitrile]
Second: CCCC#N [Butanenitrile]
The flash point of the first is lower: 6.0 °C for the first, 18.0 °C for the second.

Compared with CCCCCC(C)(C)C [Heptane, 2,2-dimethyl-], CCCCCC [n-HEXANE] is lower in flash point: 19.0 °C for the first, -21.6 °C for the second.

Going from CCC=O [Propionaldehyde] to CCCC=O [Butyraldehyde], the flash point rises from -29.9 °C to -11.0 °C.

Compared with CCC(=O)C(C)C [3-Pentanone, 2-methyl-], CC(=O)C(C)C [3-Methyl-2-butanone] is lower in flash point: 13.0 °C for the first, -1.0 °C for the second.

First: CCCCCCCCCCCCCCO [1-TETRADECANOL]
Second: CCCCCCCCCCCCCCCC [Hexadecane]
The flash point of the first is higher: 143 °C for the first, 134.0 °C for the second.

Going from C=CC(=O)OCC(C)C [Isobutyl acrylate] to C=CCOC(C)=O [ALLYL ACETATE], the flash point falls from 31.2 °C to 22.2 °C.

Going from Cc1ccc(C)c(C)c1C [1,2,3,4-Tetramethylbenzene] to Cc1cccc(C)c1C [1,2,3-Trimethylbenzene], the flash point falls from 74.0 °C to 51.0 °C.

Compared with CCc1cccc(CC)c1 [1,3-Diethylbenzene], CCCCCc1ccccc1 [Benzene, pentyl-] is higher in flash point: 56 °C for the first, 66.0 °C for the second.

Going from Cc1cc(C)c(C)cc1C [1,2,4,5-Tetramethylbenzene] to Cc1ccc(C)c(C)c1C [1,2,3,4-TETRAMETHYLBENZENE], the flash point falls from 73.0 °C to 68.0 °C.

Compared with CCCC(=O)CCC [4-Heptanone], CCCCC(=O)CCCC [5-Nonanone] is higher in flash point: 34.0 °C for the first, 65.0 °C for the second.

Going from NCCCN [1,3-Diaminopropane] to CCCCOC(C)=O [Butyl acetate], the flash point falls from 49.0 °C to 25.0 °C.

First: CC(=O)CCC(C)C [2-Hexanone, 5-methyl-]
Second: CCC(C)C(C)=O (centres undefined) [2-Pentanone, 3-methyl-]
The flash point of the first is higher: 35.0 °C for the first, 12.0 °C for the second.

First: CCC1CCCCC1 [Cyclohexane, ethyl-]
Second: NC1CCCCC1 [Cyclohexanamine]
The flash point of the first is lower: 18.0 °C for the first, 26.5 °C for the second.

Going from Cc1cc(C)c(C)cc1C [1,2,4,5-TETRAMETHYLBENZENE] to Cc1cccc(C)c1C [1,2,3-TRIMETHYLBENZENE], the flash point falls from 55 °C to 44.0 °C.

Going from Cc1cccc(O)c1 [Phenol, 3-methyl-] to Cc1cccc(O)c1C [2,3-Dimethylphenol], the flash point rises from 86.0 °C to 95.0 °C.

Going from CCCC(=O)O [Butyric acid] to CCCC(=O)CCC [4-HEPTANONE], the flash point falls from 72.0 °C to 48.0 °C.

Going from COCC(C)OC (centres undefined) [1,2-Dimethoxypropane] to CCOC(C)OCC [Ethane, 1,1-diethoxy-], the flash point rises from -0.0 °C to 13.0 °C.

First: CCCCCCCCOC(C)=O [Acetic acid octyl ester]
Second: CCCCCCCCCOC(C)=O [NONYL ACETATE]
The flash point of the first is lower: 83.0 °C for the first, 99.0 °C for the second.

First: C=CCCCCCC [1-Octene]
Second: C=CCCCCCCC [1-NONENE]
The flash point of the first is lower: 11.5 °C for the first, 22 °C for the second.

First: CC(C)=C(C)C [2-Butene, 2,3-dimethyl-]
Second: CC(=O)C(C)(C)C [Pinacolone]
The flash point of the first is lower: -16.0 °C for the first, 9.0 °C for the second.

Going from c1ccc(Oc2ccccc2)cc1 [Diphenyl ether] to c1ccc(-c2ccc(-c3ccccc3)cc2)cc1 [p-Terphenyl], the flash point rises from 115.0 °C to 207 °C.

First: C=COCCCC [n-Butylvinylether]
Second: CCCCOCC(C)O (centres undefined) [1-Butoxy-2-propanol]
The flash point of the first is lower: -1 °C for the first, 59.0 °C for the second.

Going from C=CCCCCCCCCCCCCCCCC [1-Octadecene] to CCCCCCCCCCCCCCCCCCC [Nonadecane], the flash point rises from 148.0 °C to 168 °C.

Going from O=C(O)CCCCCC(=O)O [Pimelic acid] to CCCCCCCCCCCC(=O)O [Lauric acid], the flash point rises from 150.0 °C to 164 °C.

Compared with Cc1cccnc1 [Pyridine, 3-methyl-], Cc1cccc(C)n1 [Pyridine, 2,6-dimethyl-] is lower in flash point: 36.0 °C for the first, 33 °C for the second.

Going from CC(C)Cl [2-Chloropropane] to CC(Cl)Cl [Ethane, 1,1-dichloro-], the flash point rises from -34.9 °C to -10.0 °C.

Going from C=CC(C)C [1-Butene, 3-methyl-] to C=CC(C)CCC (centres undefined) [1-Hexene, 3-methyl-], the flash point rises from -55.9 °C to -6.0 °C.

First: CCCC(C)CCC [Heptane, 4-methyl-]
Second: CCCCC(=O)CC [3-Heptanone]
The flash point of the first is lower: 6.0 °C for the first, 37.0 °C for the second.

Compared with CCCCCCCCO [1-Octanol], CCCCCCCCCC [Decane] is lower in flash point: 86.6 °C for the first, 49.8 °C for the second.

First: CCC(=O)CC [3-Pentanone]
Second: CCCCCCC(=O)CC [3-Nonanone]
The flash point of the first is lower: 7.0 °C for the first, 66.0 °C for the second.

First: O=C(O)CCCCCC(=O)O [PIMELIC acid]
Second: CCCCCCCC(C)=O [2-Nonanone]
The flash point of the first is higher: 215 °C for the first, 72.4 °C for the second.

Going from CCC(C)(C)C(C)(C)C [Pentane, 2,2,3,3-tetramethyl-] to CCC(C)O (centres undefined) [sec-Butanol], the flash point rises from 21.5 °C to 23.0 °C.

Compared with Cc1cc(C)cc(C)c1 [Mesitylene], COC(C)=O [METHYL ACETATE] is lower in flash point: 44.5 °C for the first, -10.0 °C for the second.

Going from CCCCCCCCO [1-OCTANOL] to CCCCCCl [Pentane, 1-chloro-], the flash point falls from 84 °C to 11.0 °C.

First: CCCO [1-PROPANOL]
Second: C=C(C)CCCC [1-Hexene, 2-methyl-]
The flash point of the first is higher: 18 °C for the first, -6.0 °C for the second.

Going from C[C@H]1CC[C@@H](C)CC1 [Cyclohexane, 1,4-dimethyl-, cis-] to CCCCOC(=O)CCC [Butanoic acid, butyl ester], the flash point rises from 11.2 °C to 50.0 °C.

CCCCCC=O [1-HEXANAL] showed a flash point of 27 °C.
